The record followed here is ChEMBL document CHEMBL1201862, “PubChem BioAssay data set” (2004).

Each structure is given as a SMILES string.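 Dose response: 5 concentrations. Exposure: 48 h. Format: 96-well plates. Endpoint: linear interpolation; highest concentration if not reached. Here, GI50 denotes the concentration required for 50% inhibition of growth.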 The source made the active and inactive calls. Rule as the data show it: active = GI50 up to about 1.1 µM and inactive = higher. Where only a bound is given, the exact number is not on record here.

Among the test systems are UO-31; SF-539; UACC-62; A498; SNB-19; NCI-H460; U-251; DMS-273; UACC-257; OVCAR-8; SN12C; HT-29; TK-10; HOP-62; OVCAR-4; OVCAR-5; HL-60; Hs-578T; NCI/ADR-RES; DU-145.
What all share (assay): NCI tumour cell line growth inhibition, 48 h

Regarding `CCOC(=O)C(=O)Nc1ccccc1C(F)(F)F`, the GI50 in the test on UO-31, in the test with SF-539, in the test on UACC-62, with A498, with SNB-19 and with NCI-H460 was > 100 µM (inactive) throughout. Besides, the GI50 with U-251, with DMS-273, with UACC-257, in the test with OVCAR-8, with SN12C and in the test with HT-29 was > 100 µM (inactive) in each case. Also, the GI50 with TK-10, with HOP-62, in the test with OVCAR-4 and in the test on OVCAR-5 was > 100 µM (inactive) each time.

Take `CN1CCN2c3ccccc3CC(C#N)(C#N)C2C1` (stereo unspecified): the GI50 in the test on UO-31, with SF-539, in the test with UACC-62, in the test with A498, in the test on SNB-19 and with NCI-H460 was > 100 µM (inactive) in each case. In addition, the GI50 in the test on U-251, with DMS-273, with UACC-257, in the test on OVCAR-8, with SN12C and in the test on HT-29 was > 100 µM (inactive) each time. For the same compound, the GI50 with TK-10, in the test on HL-60, with OVCAR-4 and with OVCAR-5 was > 100 µM (inactive) each time.

In the case of `COc1ccc(S(=O)(=O)NC(CCC(=O)NC(N)=O)C(=O)NC(N)=O)cc1` (stereo unspecified), the GI50 with UO-31, in the test on Hs-578T, in the test with SF-539, with UACC-62, in the test with NCI/ADR-RES and in the test with DU-145 was > 100 µM (inactive) each time. Further, the GI50 in the test on A498, in the test on SNB-19, in the test with NCI-H460, in the test on U-251, with UACC-257 and with OVCAR-8 was > 100 µM (inactive) in each case. In addition, the GI50 in the test on SN12C is > 100 µM (inactive); in the test with HT-29 it was > 100 µM (inactive); with TK-10, > 100 µM (inactive); in the test with HOP-62, > 100 µM (inactive); in the test on HL-60 it was 74.5 µM (inactive); with OVCAR-4 it was > 100 µM (inactive). In the test on OVCAR-5, the GI50 was > 100 µM (inactive).

In the case of `C=C1C(=O)O[C@H](c2ccoc2)C[C@@H]1[C@@]1(C)CCCC2(C)C(=O)OCC21` (stereo partly specified), the GI50 in the test on UO-31, in the test on SF-539, in the test with UACC-62, with A498, in the test with SNB-19 and in the test with NCI-H460 was > 100 µM (inactive) each time. The GI50 in the test on U-251, with DMS-273, in the test with UACC-257, in the test with OVCAR-8, in the test with SN12C and with HT-29 was > 100 µM (inactive) each time. Also, the GI50 in the test with TK-10, with HOP-62, in the test on OVCAR-4 and in the test on OVCAR-5 was > 100 µM (inactive) throughout.

`CCCc1cn2c(/C=N/NC(=N)N)c(-c3cccc([N+](=O)[O-])c3)nc2s1`: the GI50 is 1.9 µM (inactive) with UO-31; 2.68 µM (inactive) with Hs-578T; 1.69 µM (inactive) in the test with SF-539; 1.61 µM (inactive) in the test with UACC-62; 2.92 µM (inactive) in the test with NCI/ADR-RES; 1.74 µM (inactive) with DU-145. Also, the GI50 in the test with A498 is 17.3 µM (inactive); in the test with SNB-19, 2.07 µM (inactive); with NCI-H460, 2.22 µM (inactive); in the test with U-251, 1.86 µM (inactive); in the test on UACC-257, 1.71 µM (inactive); in the test on OVCAR-8 it was 1.88 µM (inactive). Also, the GI50 was 1.21 µM (inactive) in the test with SN12C; 2.06 µM (inactive) in the test on HT-29; 0.0405 µM (active) with TK-10; 1.78 µM (inactive) in the test on HOP-62; 2.09 µM (inactive) with HL-60; 1.47 µM (inactive) in the test with OVCAR-4. In the test with OVCAR-5, the GI50 is 1.81 µM (inactive).

Consider `CC[P+](C)(C)CC`, for which the GI50 in the test on UO-31, with SF-539, in the test on UACC-62, in the test with SNB-19, in the test with NCI-H460 and with U-251 was > 100 µM (inactive) in each case. Moreover, the GI50 in the test on DMS-273, in the test on UACC-257, in the test on OVCAR-8, in the test with SN12C, in the test on HT-29 and with TK-10 was > 100 µM (inactive) in each case. The GI50 with HOP-62, in the test on HL-60, in the test with OVCAR-4 and in the test with OVCAR-5 was > 100 µM (inactive) in each case.

On to `CCN1CSC(=S)N(CC)C1`, for which the GI50 with UO-31 was > 100 µM (inactive); in the test on Hs-578T, > 100 µM (inactive); in the test on SF-539 it was 27.7 µM (inactive); in the test on UACC-62 it was 38.8 µM (inactive); with NCI/ADR-RES, > 100 µM (inactive); in the test with DU-145, > 100 µM (inactive). Besides, the GI50 is 27.8 µM (inactive) in the test on A498; > 100 µM (inactive) in the test on SNB-19; 56.2 µM (inactive) in the test with NCI-H460; 50.8 µM (inactive) in the test on U-251; > 100 µM (inactive) with UACC-257; 98.4 µM (inactive) in the test on OVCAR-8. In addition, the GI50 is > 100 µM (inactive) with SN12C; 41.1 µM (inactive) with HT-29; > 100 µM (inactive) in the test on TK-10; 24 µM (inactive) in the test on HOP-62; 15 µM (inactive) in the test with HL-60; > 100 µM (inactive) with OVCAR-4. The GI50 in the test with OVCAR-5 was > 100 µM (inactive).

Turning to `O=C(O)[C@@H](NS(=O)(=O)c1ccc([N+](=O)[O-])cc1)c1ccccc1`, the GI50 in the test on UO-31, in the test on SF-539, with UACC-62, with A498, with SNB-19 and in the test with NCI-H460 was > 100 µM (inactive) throughout. In addition, the GI50 with U-251, with DMS-273, in the test with UACC-257, in the test with OVCAR-8, in the test with SN12C and in the test with HT-29 was > 100 µM (inactive) throughout. The GI50 with TK-10, with HL-60, with OVCAR-4 and with OVCAR-5 was > 100 µM (inactive) each time.

With `CC(=O)O[C@H]1CC[C@@]2(C)C(CC[C@]3(C)C2CC[C@]2(C)Oc4c(C)cc(O)cc4C[C@@H]23)C1(C)C` (stereo partly specified), the GI50 is 8.75 µM (inactive) with UO-31; 8.59 µM (inactive) with UACC-62; 12.7 µM (inactive) with A498; 4.24 µM (inactive) in the test on SNB-19; 4.11 µM (inactive) in the test with NCI-H460; 2.71 µM (inactive) with U-251. Also, the GI50 in the test on DMS-273 was 3.65 µM (inactive); in the test with UACC-257, 8.47 µM (inactive); in the test on OVCAR-8, 8.93 µM (inactive); in the test with SN12C, > 10 µM (inactive); in the test on HT-29 it was 11.2 µM (inactive); in the test with TK-10, 13.2 µM (inactive). For the same compound, the GI50 in the test with HOP-62 is 10.8 µM (inactive); in the test with HL-60 it was 3.82 µM (inactive); in the test with OVCAR-4, 7.64 µM (inactive); in the test with OVCAR-5 it was 10.9 µM (inactive).

Regarding `O=c1c2cc(S(=O)(=O)O)ccc2nc(COc2ccc(Oc3ccc(Cl)cc3Cl)cc2)n1-c1ccc(Oc2ccc(Cl)cc2)cc1Cl`, the GI50 was 13.9 µM (inactive) with UO-31; 20 µM (inactive) in the test with Hs-578T; 16.7 µM (inactive) in the test on SF-539; 17.4 µM (inactive) in the test on UACC-62; 18.3 µM (inactive) with NCI/ADR-RES; 38.3 µM (inactive) in the test on DU-145. In addition, the GI50 was 23.3 µM (inactive) with A498; 26.4 µM (inactive) in the test on SNB-19; 16.6 µM (inactive) in the test on NCI-H460; 16 µM (inactive) in the test with U-251; 25.2 µM (inactive) in the test with UACC-257; 19 µM (inactive) in the test with OVCAR-8. In addition, the GI50 with SN12C is 17.7 µM (inactive); in the test with HT-29 it was 18.7 µM (inactive); with TK-10 it was 22 µM (inactive); with HOP-62, 21.4 µM (inactive); in the test on HL-60, 19.2 µM (inactive); in the test on OVCAR-4, 25.2 µM (inactive). The GI50 with OVCAR-5 is 23.2 µM (inactive).

Consider `C[C@@H]1C[C@H]2OC(=O)[C@@]3(C)CCC[C@@](C)([C@@H]23)[C@@]1(O)CCc1ccoc1`, for which the GI50 in the test with UO-31 was > 59.3 µM (inactive); with Hs-578T, > 100 µM (inactive); in the test on SF-539, > 100 µM (inactive); with UACC-62, > 62.4 µM (inactive); with NCI/ADR-RES it was > 100 µM (inactive); with DU-145, > 100 µM (inactive). Moreover, the GI50 was > 100 µM (inactive) in the test on A498; > 100 µM (inactive) with SNB-19; 56.9 µM (inactive) in the test on NCI-H460; > 100 µM (inactive) in the test with U-251; > 95.7 µM (inactive) in the test on UACC-257; > 100 µM (inactive) in the test on OVCAR-8. Also, the GI50 in the test on SN12C was > 100 µM (inactive); in the test with HT-29, > 95.7 µM (inactive); in the test with TK-10 it was > 100 µM (inactive); with HOP-62 it was > 100 µM (inactive); with HL-60, 29.6 µM (inactive); in the test on OVCAR-4, > 64.9 µM (inactive). In the test on OVCAR-5, the GI50 is > 100 µM (inactive).
